Measurements published in PMC11672294, “The Antipsychotic Drug Aripiprazole Suppresses Colorectal Cancer by Targeting LAMP2a to Induce RNH1/miR‐99a/mTOR‐Mediated Autophagy and Apoptosis” (Advanced Science, 2024).
Structures can show the parent of a compound that is named as a salt.

What follows are molecules tested on HT29. Details: 72 h, relative to DMSO; 10 µM.
In short: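 Cells were exposed to drug for 72 h, then to WST-1 for 2 h at 37 °C, and absorbance was read at 450 nm as viability against DMSO treatment. In the screen, each compound was applied at 10 µM.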

Structure (SMILES)	Relative cell viability (%) [%]
Nc1ncnc2c1ncn2[C@@H]1O[C@H](CO)[C@@H](O)[C@@H]1O [Vidarabine]	74.15
COc1cccc(-c2ccc(NC(=O)C3=C(C(=O)O)CCC3)c(F)c2)c1 [Vidofludimus]	104.7
N#C[C@@H]1CCCN1C(=O)CNC12CC3CC(CC(O)(C3)C1)C2 [Vildagliptin (LAF-237)]	108.7
CC[C@]1(O)C[C@H]2CN(CCc3c([nH]c4ccccc34)[C@@](C(=O)OC)(c3cc4c(cc3OC)N(C=O)[C@H]3[C@@](O)(C(=O)OC)[C@H](OC(C)=O)[C@]5(CC)C=CCN6CC[C@]43[C@@H]65)C2)C1 [Vincristine]	22.9
CCC1=C[C@@H]2CN(C1)Cc1c([nH]c3ccccc13)[C@@](C(=O)OC)(c1cc3c(cc1OC)N(C)[C@H]1[C@@](O)(C(=O)OC)[C@H](OC(C)=O)[C@]4(CC)C=CCN5CC[C@]31[C@@H]54)C2 [Vinorelbine Tartrate]	15.76
CCOC(=O)C1=C[C@]2(CC)CCCN3CCc4c(n1c1ccccc41)[C@@H]32 [Vinpocetine]	107.3
CC[C@@H]1C(=O)N(C)c2cnc(Nc3ccc(C(=O)N[C@H]4CC[C@H](N5CCN(CC6CC6)CC5)CC4)cc3OC)nc2N1C(C)C [Volasertib (BI 6727)]	88.41
CCn1c(=O)c(-c2cc[nH]n2)cc2c(C)nc(N)nc21 [Voxtalisib (XL765, SAR245409)]	31.62
O=C[C@H](O)[C@@H](O)[C@H](O)CO [Xylose]	114.9
CC(C(=O)O)c1ccc2c(c1)CC(=O)c1ccccc1S2 (centres unmarked) [Zaltoprofen]	88.35
O=C1CCc2ccc(OCCCCN3CCN(c4cccc(Cl)c4Cl)CC3)cc2N1 [aripiprazole]	49.03
